Assay results published in PubChem BioAssay (NCI).
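Growth conditions: 96-well plates. Treatment: test compound, 48 hours, 5 concentrations. Analysis: linear interpolation between bracketing concentrations; unreached endpoints set to highest concentration. Abbreviation: GI50, concentration required for 50% inhibition of growth. Definition used: TGI = concentration required for complete inhibition of growth.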

Assays:
Test in all cases: DTP human tumour cell line panel, 48 h
RXF 393 renal = tested on: RXF 393 renal
SW-620 colon = tested on: SW-620 colon
SK-MEL-5 melanoma = tested on: SK-MEL-5 melanoma
K-562 leukemia = tested on: K-562 leukemia
NCI-H522 lung = tested on: NCI-H522 lung
A549 NSCLC = tested on: A549 NSCLC
EKVX NSCLC = tested on: EKVX NSCLC
SN12C renal = tested on: SN12C renal
HOP-62 NSCLC = tested on: HOP-62 NSCLC
MALME-3M melanoma = tested on: MALME-3M melanoma

## O=C(Nc1cccc(C(F)(F)F)c1)c1ccc(NC2=C(Cl)C(=O)N(Cc3ccccc3)C2=O)cc1
RXF 393 renal
  GI50: 29.4 µM
  TGI: 64.8 µM
SW-620 colon
  GI50: 5.11 µM
  TGI: > 100 µM
SK-MEL-5 melanoma
  GI50: 4.07 µM
  TGI: 18.1 µM
K-562 leukemia
  GI50: 1.46 µM
  TGI: 12.5 µM
NCI-H522 lung
  GI50: 3.02 µM
  TGI: 8.29 µM
A549 NSCLC
  GI50: 34.1 µM
  TGI: 84.9 µM
EKVX NSCLC
  GI50: 23.5 µM
  TGI: 54.4 µM
SN12C renal
  GI50: 4.4 µM
  TGI: 20.1 µM
HOP-62 NSCLC
  GI50: 13.1 µM
  TGI: 25.8 µM

## COc1ccc2c(c1)C(=O)c1c-2c(N2CCN(C(=O)CCNCCNCCN)CC2)nc2ccccc12
SW-620 colon
  GI50: 1.86 µM
  TGI: 3.65 µM
SK-MEL-5 melanoma
  GI50: 17.6 µM
  TGI: 36.6 µM
K-562 leukemia
  GI50: 3.33 µM
  TGI: 9.63 µM
NCI-H522 lung
  GI50: 11.2 µM
  TGI: 41.1 µM
A549 NSCLC
  GI50: 9.51 µM
  TGI: 29.4 µM
MALME-3M melanoma
  GI50: 2.78 µM
  TGI: 6.9 µM
SN12C renal
  GI50: 12.2 µM
  TGI: 38.6 µM
HOP-62 NSCLC
  GI50: 2.93 µM
  TGI: 7.51 µM

## COc1ccc(-c2cc(=O)c3cc(C)c(C)c(C(=O)O)c3o2)cc1
RXF 393 renal
  TGI: > 100 µM
SW-620 colon
  TGI: > 100 µM
K-562 leukemia
  TGI: > 100 µM
A549 NSCLC
  TGI: > 100 µM
EKVX NSCLC
  TGI: > 100 µM
SN12C renal
  TGI: > 100 µM
HOP-62 NSCLC
  TGI: > 100 µM

## CCOC(=O)CNC(=O)OCc1ccccc1
SW-620 colon
  TGI: > 100 µM
K-562 leukemia
  TGI: > 100 µM
NCI-H522 lung
  TGI: > 100 µM
A549 NSCLC
  TGI: > 100 µM
MALME-3M melanoma
  TGI: > 100 µM
SN12C renal
  TGI: > 100 µM
HOP-62 NSCLC
  TGI: > 100 µM

## COc1ccc2nc3c(cc2c1)C(=O)CC(c1ccccc1)C3 (configuration not stated)
SW-620 colon
  GI50: 0.727 µM
  TGI: > 100 µM
SK-MEL-5 melanoma
  GI50: 0.979 µM
  TGI: 44.5 µM
K-562 leukemia
  GI50: 0.359 µM
  TGI: > 100 µM
NCI-H522 lung
  GI50: 0.401 µM
  TGI: > 67.4 µM
A549 NSCLC
  GI50: 2.05 µM
  TGI: > 100 µM
EKVX NSCLC
  GI50: 5.81 µM
  TGI: > 100 µM
MALME-3M melanoma
  GI50: 0.432 µM
  TGI: > 100 µM
SN12C renal
  GI50: 0.732 µM
  TGI: > 100 µM
HOP-62 NSCLC
  GI50: 2.75 µM
  TGI: > 100 µM

## CC(=O)NCc1c(C(N)=O)ncn1Cc1ccccc1
RXF 393 renal
  TGI: > 100 µM
SW-620 colon
  TGI: > 100 µM
SK-MEL-5 melanoma
  TGI: > 100 µM
K-562 leukemia
  TGI: > 100 µM
A549 NSCLC
  TGI: > 100 µM
EKVX NSCLC
  TGI: > 100 µM
SN12C renal
  TGI: > 100 µM
HOP-62 NSCLC
  TGI: > 100 µM

## [Co].[O-]c1cccnc1C=Nc1ccccc1.[OH3+]
SW-620 colon
  GI50: > 100 µM
  TGI: > 100 µM
SK-MEL-5 melanoma
  GI50: > 100 µM
  TGI: > 100 µM
K-562 leukemia
  GI50: 45.8 µM
  TGI: > 100 µM
NCI-H522 lung
  GI50: 39.3 µM
  TGI: > 100 µM
A549 NSCLC
  GI50: > 100 µM
  TGI: > 100 µM
EKVX NSCLC
  GI50: > 100 µM
  TGI: > 100 µM
MALME-3M melanoma
  GI50: > 100 µM
  TGI: > 100 µM
SN12C renal
  GI50: > 100 µM
  TGI: > 100 µM

## CCN1C(=O)N(CC)C2C1NN=c1s/c(=C\c3ccc(C(F)(F)F)cc3)c(=O)n12 (configuration not stated)
SW-620 colon
  GI50: 0.406 µM
  TGI: > 42.2 µM
SK-MEL-5 melanoma
  GI50: 0.488 µM
  TGI: 2.63 µM
K-562 leukemia
  GI50: 0.294 µM
  TGI: > 39.8 µM
NCI-H522 lung
  GI50: 0.263 µM
  TGI: 4.13 µM
A549 NSCLC
  GI50: 0.395 µM
  TGI: > 43.1 µM
EKVX NSCLC
  GI50: 0.521 µM
  TGI: > 56.2 µM
MALME-3M melanoma
  GI50: 1.3 µM
  TGI: > 47.2 µM
SN12C renal
  GI50: 0.678 µM
  TGI: 20 µM
HOP-62 NSCLC
  GI50: 0.508 µM
  TGI: 29.8 µM

## O=C(CCCC(=O)N/N=C/c1cc(Cl)ccc1O)N/N=C\c1cc(Cl)ccc1O
SW-620 colon
  GI50: 3.69 µM
  TGI: > 100 µM
SK-MEL-5 melanoma
  GI50: 2.5 µM
  TGI: > 100 µM
K-562 leukemia
  GI50: 2.88 µM
  TGI: > 100 µM
NCI-H522 lung
  GI50: 3.62 µM
  TGI: > 100 µM
A549 NSCLC
  GI50: 3.69 µM
  TGI: > 100 µM
SN12C renal
  GI50: 4.3 µM
  TGI: > 100 µM
HOP-62 NSCLC
  GI50: 5.05 µM
  TGI: > 100 µM

## OCCN(CCO)c1nc(N2CCCCC2)c2nc(N(CCO)CCO)nc(N3CCCCC3)c2n1
SW-620 colon
  TGI: > 100 µM
SK-MEL-5 melanoma
  TGI: 41.8 µM
K-562 leukemia
  TGI: > 100 µM
NCI-H522 lung
  TGI: 39.6 µM
A549 NSCLC
  TGI: > 100 µM
EKVX NSCLC
  TGI: > 100 µM
MALME-3M melanoma
  TGI: 46 µM
SN12C renal
  TGI: > 100 µM
HOP-62 NSCLC
  TGI: > 100 µM

## COc1ccc(C2=NN(C(C)=O)C(c3ccc(Oc4ccnc5cc(Cl)ccc45)c(OC)c3)C2)cc1 (configuration not stated)
RXF 393 renal
  GI50: 5.04 µM
  TGI: 41 µM
SW-620 colon
  GI50: > 100 µM
  TGI: > 100 µM
SK-MEL-5 melanoma
  GI50: > 100 µM
  TGI: > 100 µM
NCI-H522 lung
  GI50: 7.57 µM
  TGI: > 100 µM
EKVX NSCLC
  GI50: 51.7 µM
  TGI: > 100 µM
SN12C renal
  GI50: > 100 µM
  TGI: > 100 µM
HOP-62 NSCLC
  GI50: 3.37 µM
  TGI: 13.1 µM

## O=S1(=O)c2cc(S(=O)(=O)n3ccnc3)ccc2NC2=NCCCN21
SW-620 colon
  TGI: 73.8 µM
SK-MEL-5 melanoma
  TGI: 49.6 µM
K-562 leukemia
  TGI: > 100 µM
NCI-H522 lung
  TGI: 30.9 µM
A549 NSCLC
  TGI: > 100 µM
EKVX NSCLC
  TGI: > 100 µM
MALME-3M melanoma
  TGI: > 100 µM
SN12C renal
  TGI: > 100 µM
HOP-62 NSCLC
  TGI: 63.6 µM

## O=C1OC(c2ccc(Cl)cc2)=N/C1=C\c1ccccc1
RXF 393 renal
  TGI: > 100 µM
SW-620 colon
  TGI: > 100 µM
SK-MEL-5 melanoma
  TGI: > 100 µM
K-562 leukemia
  TGI: > 100 µM
NCI-H522 lung
  TGI: > 100 µM
A549 NSCLC
  TGI: > 100 µM
EKVX NSCLC
  TGI: > 100 µM
SN12C renal
  TGI: > 100 µM
HOP-62 NSCLC
  TGI: > 100 µM

## O=C(Nc1ccccc1Cl)c1ccc(NC2=C(Cl)C(=O)N(C3CCCCC3)C2=O)cc1
SW-620 colon
  GI50: 10.3 µM
  TGI: 30.2 µM
SK-MEL-5 melanoma
  GI50: 11.5 µM
  TGI: 40.3 µM
K-562 leukemia
  GI50: 2.88 µM
  TGI: 17.9 µM
NCI-H522 lung
  GI50: 6.23 µM
  TGI: 34.7 µM
A549 NSCLC
  GI50: 13.3 µM
  TGI: 32.9 µM
EKVX NSCLC
  GI50: 24.3 µM
  TGI: 53.1 µM
MALME-3M melanoma
  GI50: 20.5 µM
  TGI: 51.2 µM
HOP-62 NSCLC
  GI50: 8.37 µM
  TGI: 29.3 µM

## COc1ccccc1NC(=O)C1=C(C)NC(C)=C(C(=O)Nc2ccccc2OC)C1c1ccccc1Cl
SW-620 colon
  TGI: > 100 µM
SK-MEL-5 melanoma
  TGI: > 100 µM
K-562 leukemia
  TGI: > 100 µM
A549 NSCLC
  TGI: > 100 µM
EKVX NSCLC
  TGI: > 100 µM
MALME-3M melanoma
  TGI: > 100 µM
SN12C renal
  TGI: > 100 µM
HOP-62 NSCLC
  TGI: > 100 µM
